Reference: patent US20110280940A1, “Di-Vanilloyl And Tri-Vanilloyl Derivatives For Use In Anti-Cancer Therapy” (priority 2008, published 2011)
Blank lines part the entries; values can stand above or below the compound they belong to.

What was measured:
CK1 = assay: Kinase activity assay, CK1; assay type: biochemical, porcine; settings: 10 μM, 1% DMSO, 15 μM ATP; residual activity
Experimental: (§1) Buffer A: 10 mM MgCl2, 1 mM EGTA, 1 mM DTT, 25 mM Tris-HCl pH 7.5, 50 μg heparin/ml. Buffer C: 60 mM β-glycerophosphate, 15 mM p-nitrophenylphosphate, 25 mM Mops (pH 7.2), 5 mM EGTA, 15 mM MgCl2, 1 mM DTT, 1 mM sodium vanadate, 1 mM phenyl phosphate.
(§2) Kinase activities were assayed in Buffer A or C, at 30° C., at a final ATP concentration of 15 μM. Blank values were subtracted and activities expressed in % of the maximal activity, i.e. in the absence of inhibitors. Controls were performed with appropriate dilutions of DMSO.
CK1 (porcine brain, native) was assayed as described for CDK1 but using the CK1-specific peptide substrate […]pSAYSITA (Seq. ID NO 2) (Reinhardt et al., 2007, Protein Expr. & Purif. 54, 101-109), obtained from Millegen (Labege, France).

Erk2 = Erk2 (Rattus norvegicus, UniProt P63086); assay: Kinase activity assay, Erk2; assay type: biochemical; settings: 10 μM, 1% DMSO, 15 μM ATP; residual activity
Experimental: as §1, §2
Erk2 (rat, recombinant) was assayed as described for CDK1 but using the specific substrate Ets1 (amino acids 1-138) in buffer A.

250 protein kinases = assay: Kinase inhibition profile of DLT11 at 20 μM (33 PanQinase); assay type: biochemical, human; settings: out of 250 kinases
Experimental: The kinase inhibition profile of DLT11 at 20 μM was determined using 250 protein kinases. Residual activity values were measured by testing each compound at one concentration in duplicate in each kinase assay. A radiometric protein kinase assay (33 PanQinase®Activity Assay) was used for measuring the kinase activity of 250 protein kinases. All kinase assays were performed in 96-well flashPlates™ from Perkin Elmer (Boston, Mass., USA) in a 50 μl reaction volume. The reaction cocktail was pipetted in 4 steps in the following order: • 10 μl of non-radioactive ATP solution (in H2O) • 25 μl of assay buffer/[γ-33P]-ATP mixture • 5 μl of test sample in 10% DMSO • 10 μl of enzyme/substrate mixture […]
(§3) Incorporation of ^33Pi (counting of “cpm”) was determined with a microplate scintillation counter (Microbeta, Wallac).
For each kinase, the median value of the cpm of three wells with complete reaction cocktails, but without kinase, was defined as “low control” (n=3). This value reflects unspecific binding of radioactivity to the plate in the absence of protein kinase but in the presence of the substrate. […] The residual activity (in %) for each compound well was calculated by using the following formula: Res. Activity (%)=100×[(cpm of compound−low control)/(high control−low control)] […]

255 protein kinases = assay: Kinase inhibition profile of DLT95-Cl at 20 μM (33 PanQinase); assay type: biochemical, human; settings: over the 255 kinases screened
Experimental: In view of the results in FIG. 5 and Table 7, the inventors performed a broader analysis on impairment of 255 protein kinases by DLT95-Cl compound of the invention.
255 kinases where tested with DLT95-Cl at 20 μM to establish the kinase inhibition profile of the compound.
The kinase inhibition profile of DLT95-Cl at 20 μM was determined using 255 protein kinases. Residual activity values were measured by testing each compound at one concentration in duplicate in each kinase assay. A radiometric protein kinase assay (33 PanQinase®Activity Assay) was used for measuring the kinase activity of 250 protein kinases. All kinase assays were performed in 96-well flashPlates™ from Perkin Elmer (Boston, Mass., USA) in a 50 μl reaction volume. […]
as §3
For each kinase, the median value of the cpm of three wells with complete reaction cocktails, but without kinase, was defined as “low control” (n=2). This value reflects unspecific binding of radioactivity to the plate in the absence of protein kinase but in the presence of the substrate. […] The residual activity (in %) for each compound well was calculated by using the following formula: Res. Activity (%)=100×[(cpm of compound−low control)/(high control−low control)]

Erk2, sequence (P63086 whole entry): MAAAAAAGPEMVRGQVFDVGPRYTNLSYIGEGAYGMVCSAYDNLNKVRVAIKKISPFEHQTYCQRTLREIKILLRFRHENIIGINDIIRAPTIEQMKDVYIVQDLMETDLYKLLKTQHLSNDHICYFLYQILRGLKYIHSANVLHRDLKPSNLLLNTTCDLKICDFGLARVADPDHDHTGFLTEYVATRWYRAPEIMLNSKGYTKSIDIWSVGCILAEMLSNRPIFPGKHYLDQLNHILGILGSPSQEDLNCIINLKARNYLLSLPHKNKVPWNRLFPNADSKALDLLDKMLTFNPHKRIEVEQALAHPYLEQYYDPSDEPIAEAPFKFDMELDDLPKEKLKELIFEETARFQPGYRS

SMILES: COc1cc(C(=O)OCCOC(=O)c2ccc(O)c(OC)c2)ccc1O [DLT1, Ethane-1,2-diyl bis-(4-hydroxy-3-methoxybenzoate)]
% ENZYMATIC ACTIVITY, Ckone (CK1): 62% | % ENZYMATIC ACTIVITY, Erk2 (Erk2): 99%

number of kinases that had their activity inhibited (250 protein kinases): 19
SMILES: COc1cc(C(=O)OCCCCCCOC(=O)c2ccc(O)c(OC)c2)ccc1O [DLT11, Hexane-1,6-diyl bis-(4-hydroxy-3-methoxybenzoate)]

SMILES: O=C(OCc1cc(COC(=O)c2ccc(O)c(Cl)c2)cc(COC(=O)c2ccc(O)c(Cl)c2)c1)c1ccc(O)c(Cl)c1 [DLT95-Cl, [3,5-bis[(4-hydroxy-3-chloro-benzoyl)oxymethyl]phenyl]methyl 4-hydroxy-3-chloro-benzoate]
number of kinases whose activity is ≧50% impaired (255 protein kinases): 249
